In publication PMC12491518, “Fabrication of cytotoxic mirror image nanopores” (Nature Communications, 2025):
Where a SMILES comes first, the peptide text is derived from it. [ ]: non-standard residue; d: D form.

What was measured:
[1] = Ion selectivity measurement under asymmetric KCl (reverse potential, Goldman-Hodgkin-Katz); type: biochemical; conditions: 0.15 M KCl cis / 1 M KCl trans
Protocol: High-resolution electrical recordings for the single-channel characterization were conducted in planar lipid bilayers made up of 1,2-diphytanoyl-sn-glycero-3-phosphocholine (DPhPC, Avanti Polar Lipids)[23],[27],[51]. The lipid bilayer is formed across a polytetrafluoroethylene (Teflon) aperture of ~100 µm in diameter. Teflon is placed between the two sides of the Delrin bilayer chamber, partitioning it into cis and trans compartments (600 µL each). For constructing a solvent-free lipid bilayer, the aperture is made lipophilic by pre-painting both sides with hexadecane in n-pentane (1 μL, 5 mg mL^−1)[51]. After ~10 min, the chambers were filled with buffered electrolytes (1 M KCl, 10 mM HEPES, pH 7.4), and DPhPC in n-pentane (1 μL, 5 mg mL^−1) was added. After ~15 min incubation, the lipid bilayer is formed by raising and lowering the electrolyte solution, bringing the two lipid monolayers together at the aperture. […] Ion selectivity was assessed under asymmetric salt conditions with a KCl concentration gradient across the planar lipid bilayer (0.15 M cis/1 M trans) (SI text)[27]. The ion current was acquired and amplified using an Axopatch 200B amplifier, digitized with Digidata 1550B digitizer, and recorded using the pClamp 11 acquisition software (Molecular Devices, CA). […]

MDA-MB-231 cells = experiment: Cell membrane integrity by CellMask Deep Red staining; type: cell-based, human; conditions: 25 µM, 24 h
Protocol: MDA-MB-231 cells were seeded in a 24-well plate (Thermo Fisher Scientific, 142475) containing sterilized coverslips (Blue star, Microscopic cover glass circular 12 mm 10 gm) at a cell density of 3 × 10^4 cells per well. 24 h post-seeding, cells were treated with DpPorA DE peptide, 5-FAM-DpPorA DE peptide, or a corresponding concentration of DDM. After 24 h of treatment, cells were stained with CellMask Deep Red (Thermo Fisher Scientific, C10046; 1:4000 dilution in PBS) for 5 min at 37 °C. After membrane staining, the cells were washed with PBS and fixed in 2% PFA (Himedia, TCL119) for 5 min. After PBS wash, the coverslips were carefully removed from the wells and mounted with ProLong™ Gold Antifade Mountant (Invitrogen, P10144). The cells were immediately visualized within 60 min using the Carl Zeiss Axio Observer fluorescence microscope. Fluorescence was quantified by drawing the ROI around individual cells to measure the green channel intensity (5-FAM-DpPorA DE). Integrated Density was measured using ImageJ software for 50 cells per group. […]
g) Preparation of DDM and peptides for testing on cancer cells
Lyophilized DpPorA, LpPorA, DpPorA DE, LpPorA DE and 5-FAM-DpPorA DE were reconstituted in 0.1% DDM [1 µL of 100 µg mL-1 DDM (Sigma-Aldrich Merck, D5172) in PBS (Gibco - 14040)], resulting in a peptide concentration of 1.7 mM. Subsequent concentrations were diluted with DMEM, 10% FBS, and 1% Penicillin /Streptomycin-containing media. (Supplementary Table 2) h) Cell membrane integrity analysis and statistics
Immunofluorescence (IF) images were analyzed to assess the impact of different treatments on cell membrane integrity. Cells were categorized into Intact and Disrupted groups based on membrane integrity observed by CellMask cell membrane staining. We evaluated a t least 100 cells for each group - Control, DDM-treated cells and peptide-treated cells- with independent analysis done by a student blinded to the groups' identity . […]
indicating a loss of cell membrane integrity. This categorization provided a clear and systematic approach to quantify the effects of various treatments on cell membrane integrity.
For three independent experiments, data in bar graphs represent mean (± standard deviation) fold change relative to Control groups. Differences between the two datasets were assessed using Welch’s test. Statistical significance is indicated as: *p<0.05, **p<0.01, ***p<0.001,

Structure (SMILES) | reverse potential (Vm) [1] | Cell number, Disrupted phenotype (MDA-MB-231 cells) | Cell number, Intact phenotype (MDA-MB-231 cells) | cells with Disrupted membrane phenotype (MDA-MB-231 cells; at least 100 cells) | cells with Intact membrane phenotype (MDA-MB-231 cells; at least 100 cells)
CC[C@@H](C)[C@@H](NC(=O)[C@H](N)CCSC)C(=O)N[C@H](CC(=O)O)C(=O)N[C@H](CCC(N)=O)C(=O)N[C@@H](C(=O)N[C@@H](C(=O)N[C@H](CCC(=O)O)C(=O)N[C@@H](C(=O)N[C@H](Cc1ccccc1)C(=O)NCC(=O)N[C@H](CCC(N)=O)C(=O)N[C@H](CC(C)C)C(=O)NCC(=O)N[C@@H](C(=O)N[C@H](Cc1ccccc1)C(=O)N[C@H](CC(C)C)C(=O)NCC(=O)NCC(=O)N[C@H](Cc1ccccc1)C(=O)NCC(=O)N[C@H](CC(N)=O)C(=O)N[C@@H](C(=O)N[C@H](Cc1ccccc1)C(=O)N[C@H](CCCCN)C(=O)NCC(=O)N[C@H](CC(C)C)C(=O)N[C@H](CCCCN)C(=O)N[C@H](C)C(=O)N[C@@H](C(=O)N[C@@H](C(=O)N[C@H](C)C(=O)N[C@@H](C(=O)N[C@@H](C(=O)N[C@@H](C(=O)N[C@H](CCCCN)C(=O)N[C@H](Cc1c[nH]c2ccccc12)C(=O)N[C@@H](C(=O)N[C@H](C)C(=O)N[C@H](C)C(=O)N[C@H](CCCCN)C(=O)O)[C@H](C)O)C(C)C)[C@H](C)CC)[C@H](C)O)[C@H](C)CC)C(C)C)[C@H](C)CC)[C@H](C)O)[C@H](C)CC)[C@H](C)O)[C@H](C)CC [DpPorA DE] (H-[dM][dI][dD][dQ][dI][dT][dE][dI][dF]G[dQ][dL]G[dT][dF][dL]GG[dF]G[dN][dI][dF][dK]G[dL][dK][dA][dV][dI][dA][dT][dI][dV][dK][dW][dT][dA][dA][dK]-OH; N-terminus and C-terminus assumed) | +40 mV | 158 | 1 | 99.37% | 0.63%
CC[C@@H](C)[C@@H](NC(=O)[C@H](N)CCSC)C(=O)N[C@H](CC(=O)O)C(=O)N[C@H](CCC(N)=O)C(=O)N[C@@H](C(=O)N[C@@H](C(=O)N[C@H](CCC(=O)O)C(=O)N[C@@H](C(=O)N[C@H](Cc1ccccc1)C(=O)NCC(=O)N[C@H](CCC(N)=O)C(=O)N[C@H](CC(C)C)C(=O)NCC(=O)N[C@@H](C(=O)N[C@H](Cc1ccccc1)C(=O)N[C@H](CC(C)C)C(=O)NCC(=O)NCC(=O)N[C@H](Cc1ccccc1)C(=O)NCC(=O)N[C@H](CC(N)=O)C(=O)N[C@@H](C(=O)N[C@H](Cc1ccccc1)C(=O)N[C@H](CCCCN)C(=O)NCC(=O)N[C@H](CC(C)C)C(=O)N[C@H](CCCCN)C(=O)N[C@H](CC(=O)O)C(=O)N[C@@H](C(=O)N[C@@H](C(=O)N[C@H](CCC(=O)O)C(=O)N[C@@H](C(=O)N[C@@H](C(=O)N[C@@H](C(=O)N[C@H](CCCCN)C(=O)N[C@H](Cc1c[nH]c2ccccc12)C(=O)N[C@@H](C(=O)N[C@H](C)C(=O)N[C@H](C)C(=O)N[C@H](CCCCN)C(=O)O)[C@H](C)O)C(C)C)[C@H](C)CC)[C@H](C)O)[C@H](C)CC)C(C)C)[C@H](C)CC)[C@H](C)O)[C@H](C)CC)[C@H](C)O)[C@H](C)CC [DpPorA] (H-[dM][dI][dD][dQ][dI][dT][dE][dI][dF]G[dQ][dL]G[dT][dF][dL]GG[dF]G[dN][dI][dF][dK]G[dL][dK][dD][dV][dI][dE][dT][dI][dV][dK][dW][dT][dA][dA][dK]-OH; N-terminus and C-terminus assumed) | +21 mV |  |  |  | 
